The values below come from patent publication US20220243211A1, “PEPTIDE NUCLEIC ACID COMPOSITIONS WITH MODIFIED HOOGSTEEN BINDING SEGMENTS AND METHODS OF USE THEREOF” (Yale University, priority 2019, published 2022).

[PNA-N] = peptide nucleic acid monomer (N: the base)

The conditions of data set [1]: mouse, in vivo. The protocol:
To collect the lungs for histopathology, a midline incision from sternum to diaphragm was performed and, to remove blood from the pulmonary circulation, PBS+heparin was perfused via the right ventricle using a 20 g needle. Lungs were inflated with 0.5% low melt agarose at constant pressure, then removed from the chest and placed in fixative. Paraffin embedded tissues were stained with hemotoxylin and eosin stain for imaging.
To investigate whether NPs could effectively deliver the gene editing reagents to the lung TAMRA-conjugated mouse specific PNA (γmCF PNA-h) and mouse donor DNA into PBAE/PLGA/MPG NPs were formulated. After intranasal administration of γmCF PNA-h/DNA NPs into CF mice, the lungs were harvested and PNA uptake was assessed by fluorescence microscopy.

Data set [2] can be described thus: Zeta potential and hydrodynamic diameter of formulated NPs by dynamic light scattering. Particulars: NPs containing PNA/donor DNA, PBS buffer, n = 3; for Z Av Diameter: dynamic light scattering. It counts as physicochemical. Here is the method:
Blank NPs containing no PNA and a mismatch donor DNA as a control were prepared as a control. The mismatched donor DNA was purposely added into blank NPs because addition of donor DNA helps to produce a similar surface charge on the control NPs as on the test NPs encapsulated with PNA/donor DNA combinations. […] All NP in the diameters were in the range of 200-350 nm, as measured by dynamic light scattering (Table 1), consistent with previous measurements (McNeer, et al., Nat Commun 6, 6952 (2015), Fields, et al., Adv Healthc Mater 4, 361-366 (2015), Fields, et al., J Control Release 164, 41-48 (2012)). PNA/DNA-loaded NPs were cationic (Fields, et al., Adv Healthc Mater 4, 361-366 (2015), Fields, et al., J Control Release 164, 41-48 (2012)) for PBAE/PLGA/MPG NPs (Table 1).

The test system of data set [3] is CFTR function in the nasal epithelium. Put plainly: Nasal potential difference (NPD) in CF mice after intranasal NPs. It counts as in vivo, mouse. Particulars: F508del CF mice, intranasal PBAE/PLGA/MPG NPs with PNA/donor DNA. The protocol: FIG. 4 is a dot plot showing functional correction of CFTR with modified NPs in vivo. Mice were treated by intranasal administration with NPs. Nasal potential difference measurements were evaluated before and after NP treatments. The response to a 0Cl+amiloride+forksolin perfusate after NP treatment was compared to the response prior to treatment. Pre- and post-treatment changes in NPD were compared using paired t tests for each mouse. Each mouse is represented with an individual data point; in addition, the mean is shown with a horizontal line, surround by error bars showing the standard error of the mean. In the last panel, nasal potential difference changes in wild type mice are shown for comparison. […]
To determine if gamma tcPNAs were more efficient editing agents than classic PNA in vivo, CF mice were treated intranasally with PBAE/PLGA/MPG NPs containing mCF-PNA/DNA or γmCF-PNA-h/DNA on days 1, 3, 6, and 9. Subsequently, CF mice were assessed for CFTR function in the nasal epithelium by measuring the nasal potential difference (NPD), a non-invasive assay used to detect cAMP-stimulated chloride transport in vivo. […] NPD is assessed in all mice prior to treatment with NPs and reassessed after treatment such that alterations in this measure can be used as a surrogate of restored CFTR function.

Turning to “H-KKK-JTTTTJJJ-OOO-CCCTTTTCAAGGTGAGTAG-KKK-NH2 [γmCF PNA-h] (NTTTTNNNCCCTTTTCAAGGTGAGTAG; all [PNA-N], the base at N not given here; lysine tripeptides at both ends, OOO linker, some gamma-modified PNA monomers, further chemistry not fully specified) [tail clamp PNA targeting mouse CFTR gene with MPγ monomers in Hoogsteen domain]”, in data set [1], the “histology of nasal epithelia / respiratory tract” value is on record as “No significant differences in the histology of the nasal epithelia”. In addition, in data set [2], the “Zeta Potential” value was found to be 36.17 mV and the “Z Av Diameter” value is reported as 349.1 nm. Besides, in data set [3], the “treated mice showing response to cyclic AMP stimulation (cyclic AMP activated Cl− conductance) in NPD” value is on record as 79%.

In the case of “H-KKK-JTTTTJJJ-OOO-CCCTTTTCAAGGTGAGTAG-KKK-NH2 [mCF PNA] (NTTTTNNNCCCTTTTCAAGGTGAGTAG; listed as DNA, chemistry not fully specified)”, in data set [2], the “Zeta Potential” value is given as 46.17 mV and the “Z Av Diameter” value stood at 317.8 nm. Further, the “treated mice showing response to cyclic AMP stimulation (cyclic AMP activated Cl− conductance) in NPD” value in data set [3] stood at 50%.
